The target in test [1] is T1, CD73 (Homo sapiens (Human), UniProt P21589). The test is classed as biochemical. The conditions noted are these: 1 mM NaH2PO4 in enzyme buffer, CD73 0.3 nM, AMP 15 uM.
Test [2] concerns the target T1, CD73. The test can be described thus: MDA-MB-231 Cell Based CD73 Activity Assay (DMEM). Particulars: MDA-MB-231-GFP cells, DMEM medium with 10% human plasma, 200 uM AMP.

For 30 compounds, IC50 and EC50 results are on record in US20240043427A1 (Gilead Sciences, Inc., priority 2020, published 2024).

By pIC50 is commonly meant the negative decadic logarithm of the IC50, by convention in mol/L. Low readings indicate a high IC50, high ones a low IC50. As a reminder, the pEC50 is −log10 of the EC50, conventionally taken in molar units.

The structures appear in SMILES notation. pEC50, pIC50: −log10 of the molar value.

T1 sequence (P21589 27-574): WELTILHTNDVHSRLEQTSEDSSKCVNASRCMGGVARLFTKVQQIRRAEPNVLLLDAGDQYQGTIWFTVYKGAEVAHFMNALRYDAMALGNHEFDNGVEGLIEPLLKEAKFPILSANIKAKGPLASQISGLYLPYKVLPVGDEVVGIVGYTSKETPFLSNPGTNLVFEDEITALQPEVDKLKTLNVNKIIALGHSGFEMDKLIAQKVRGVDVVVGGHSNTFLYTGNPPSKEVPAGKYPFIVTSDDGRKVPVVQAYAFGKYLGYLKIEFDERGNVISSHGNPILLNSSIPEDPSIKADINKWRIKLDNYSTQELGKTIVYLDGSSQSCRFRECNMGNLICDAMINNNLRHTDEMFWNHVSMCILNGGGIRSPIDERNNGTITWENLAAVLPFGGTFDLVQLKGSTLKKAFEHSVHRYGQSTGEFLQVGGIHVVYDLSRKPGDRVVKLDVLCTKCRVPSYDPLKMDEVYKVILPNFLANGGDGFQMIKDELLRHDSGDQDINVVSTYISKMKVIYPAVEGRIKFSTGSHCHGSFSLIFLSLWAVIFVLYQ

Turning to `N#Cc1ccc([C@H]2C[C@@H]2c2cc(-c3c[nH]c(=O)[nH]c3=O)nn3ccnc23)cc1` [Example 465, 4-((1S,2S)-2-(6-(2,4-dioxo-1,2,3,4-tetrahydropyrimidin-5-yl)imidazo[1,2-b]pyridazin-8-yl)cyclopropyl)benzonitrile], the pIC50 against CD73 [1] was 9.07. This compound also gave a negative-log EC50 (pEC50) on CD73 [2] of 8.49.
The compound `N#Cc1ccc([C@H]2C[C@@H]2c2cc(-c3c[nH]c(=O)[nH]c3=O)nn3ccnc23)cc1F` [Example 467, 4-((1S,2S)-2-(6-(2,4-dioxo-1,2,3,4-tetrahydropyrimidin-5-yl)imidazo[1,2-b]pyridazin-8-yl)cyclopropyl)-2-fluorobenzonitrile] showed a pIC50 on CD73 [1] of 9.07. On CD73 [2], this compound had a negative logarithm of the EC50 (pEC50) of 8.41.
For the compound `O=c1[nH]cc(-c2cc([C@H]3C[C@@H]3c3ccc(F)cc3F)n3nccc3n2)c(=O)[nH]1` [Example 469, 5-(7-((1S,2S)-2-(2,4-difluorophenyl)cyclopropyl)pyrazolo[1,5-a]pyrimidin-5-yl)pyrimidine-2,4(1H,3H)-dione], the pIC50 on CD73 [1] is 8.76. The compound also gave a negative-log EC50 (pEC50) at CD73 [2] of 7.82.
The compound `O=c1[nH]cc(-c2cc([C@H]3C[C@@H]3c3ccc4cnn(CC(F)(F)F)c4c3)c3ncc(Cl)n3n2)c(=O)[nH]1` [Example 470, 5-(3-chloro-8-((1S,2S)-2-(1-(2,2,2-trifluoroethyl)-1H-indazol-6-yl)cyclopropyl)imidazo[1,2-b]pyridazin-6-yl)pyrimidine-2,4(1H,3H)-dione] gave a pIC50 against CD73 [1] of 9.64. This compound had a negative logarithm of the EC50 (pEC50) on CD73 [2] of 9.89.
On the same counts, the results for `O=c1[nH]cc(-c2cc(N3C[C@@H](F)[C@@H](F)C3)n3ncnc3n2)c(=O)[nH]1` [Example 472, 5-(7-((3R,4S)-3,4-difluoropyrrolidin-1-yl)-[1,2,4]triazolo[1,5-a]pyrimidin-5-yl)pyrimidine-2,4(1H,3H)-dione] are 7.81 and 7.23.
On CD73 [1], `COC1CN(c2cc(-c3c[nH]c(=O)[nH]c3=O)nn3ccnc23)CC1(F)F` (stereo not drawn) [Example 473, 5-(8-(3,3-difluoro-4-methoxypyrrolidin-1-yl)imidazo[1,2-b]pyridazin-6-yl)pyrimidine-2,4(1H,3H)-dione] gave a pIC50 of 8.24. The compound further had a pEC50 at CD73 [2] of 7.74.
At CD73 [1], `COC1CN(c2cc(-c3c[nH]c(=O)[nH]c3=O)nn3c(F)cnc23)CC1(F)F` (stereo not drawn) [Example 474, 5-(8-(3,3-difluoro-4-methoxypyrrolidin-1-yl)-3-fluoroimidazo[1,2-b]pyridazin-6-yl)pyrimidine-2,4(1H,3H)-dione] gave a pIC50 of 8.13. For the same compound, the pEC50 on CD73 [2] is 7.57.
For `CC(C)Cc1cn2nc(-c3c[nH]c(=O)[nH]c3=O)cc(N3CC(F)(F)C4(CC4)C3)c2n1` [Example 475, 5-(8-(7,7-difluoro-5-azaspiro[2.4]heptan-5-yl)-2-isobutylimidazo[1,2-b]pyridazin-6-yl)pyrimidine-2,4(1H,3H)-dione] the same measures were 7.49 and 6.03.
On the same counts, the results for `O=c1[nH]cc(-c2cc(N3C[C@H]4CC[C@H]4C3)c3nccn3n2)c(=O)[nH]1` [Example 476, 5-(8-(cis-3-azabicyclo[3.2.0]heptan-3-yl)imidazo[1,2-b]pyridazin-6-yl)pyrimidine-2,4(1H,3H)-dione] are 7.41 and 7.49.
Regarding `COC[C@@H]1CCCN1c1cc(-c2c[nH]c(=O)[nH]c2=O)nn2ccnc12` [Example 477, (S)-5-(8-(2-(methoxymethyl)pyrrolidin-1-yl)imidazo[1,2-b]pyridazin-6-yl)pyrimidine-2,4(1H,3H)-dione], the pIC50 against CD73 [1] was below 6.60. The same compound had a pEC50 at CD73 [2] of 6.02.
On the same counts, the results for `O=c1[nH]cc(-c2cc(N3CC4CCC4(F)C3)c3nccn3n2)c(=O)[nH]1` (stereo not drawn) [Example 478, 5-(8-(1-fluoro-3-azabicyclo[3.2.0]heptan-3-yl)imidazo[1,2-b]pyridazin-6-yl)pyrimidine-2,4(1H,3H)-dione] are 7.49 and 7.27.
At CD73 [1], `CC1CN(c2cc(-c3c[nH]c(=O)[nH]c3=O)nn3ccnc23)CC1(F)F` (stereo not drawn) [Example 479, 5-(8-(3,3-difluoro-4-methylpyrrolidin-1-yl)imidazo[1,2-b]pyridazin-6-yl)pyrimidine-2,4(1H,3H)-dione] gave a pIC50 of 8.59. This compound showed a negative-log EC50 (pEC50) at CD73 [2] of 8.04.
For `O=C1CCN(c2cc(-c3c[nH]c(=O)[nH]c3=O)nn3ccnc23)N1` [Example 480, 5-(8-(3-oxopyrazolidin-1-yl)imidazo[1,2-b]pyridazin-6-yl)pyrimidine-2,4(1H,3H)-dione] the same measures were below 6.60 and 5.72.
For `O=c1[nH]cc(-c2cc(N3CC(F)(F)C3)c3nccn3n2)c(=O)[nH]1` [Example 481, 5-(8-(3,3-difluoroazetidin-1-yl)imidazo[1,2-b]pyridazin-6-yl)pyrimidine-2,4(1H,3H)-dione] the same measures were 7.58 and 7.35.
For the compound `O=C1CN(c2cc(-c3c[nH]c(=O)[nH]c3=O)nn3ccnc23)CCN1Cc1ccc(F)cc1` [Example 482, 5-(8-(4-(4-fluorobenzyl)-3-oxopiperazin-1-yl)imidazo[1,2-b]pyridazin-6-yl)pyrimidine-2,4(1H,3H)-dione], the pIC50 against CD73 [1] is below 6.60. Also, the pEC50 at CD73 [2] is 5.91.
For `O=c1[nH]cc(-c2cc(N3CCCCCC3)c3nccn3n2)c(=O)[nH]1` [Example 483, 5-(8-(azepan-1-yl)imidazo[1,2-b]pyridazin-6-yl)pyrimidine-2,4(1H,3H)-dione] the same measures were below 6.60 and 6.25.
For `CC1CCN(c2cc(-c3c[nH]c(=O)[nH]c3=O)nn3ccnc23)CCC1(F)F` (stereo not drawn) [Example 484, 5-(8-(4,4-difluoro-5-methylazepan-1-yl)imidazo[1,2-b]pyridazin-6-yl)pyrimidine-2,4(1H,3H)-dione], the pIC50 against CD73 [1] is 7.16. This compound gave a pEC50 at CD73 [2] of 6.75.
On the same counts, the results for `CC(C)(O)CCNc1cc(-c2c[nH]c(=O)[nH]c2=O)nn2ccnc12` [Example 485, 5-(8-((3-hydroxy-3-methylbutyl)amino)imidazo[1,2-b]pyridazin-6-yl)pyrimidine-2,4(1H,3H)-dione] are below 6.60 and 6.15.
On the same counts, the results for `O=c1[nH]cc(-c2cc(NCCCc3ccccc3)c3nccn3n2)c(=O)[nH]1` [Example 486, 5-(8-((3-phenylpropyl)amino)imidazo[1,2-b]pyridazin-6-yl)pyrimidine-2,4(1H,3H)-dione] are below 6.60 and 6.00.
Compound `O=c1[nH]cc(-c2cc(NCCc3ccccc3)c3nccn3n2)c(=O)[nH]1` [Example 487, 5-(8-(phenethylamino)imidazo[1,2-b]pyridazin-6-yl)pyrimidine-2,4(1H,3H)-dione] gave a negative logarithm of the IC50 (pIC50) at CD73 [1] of 7.56. Also, the pEC50 on CD73 [2] was 7.09.
For `CC(C)(C)OC(=O)N1CC2(C1)CN(c1cc(-c3c[nH]c(=O)[nH]c3=O)nn3ccnc13)CC2(F)F` [Example 488, tert-butyl 6-(6-(2,4-dioxo-1,2,3,4-tetrahydropyrimidin-5-yl)imidazo[1,2-b]pyridazin-8-yl)-8,8-difluoro-2,6-diazaspiro[3.4]octane-2-carboxylate] the same measures were 7.77 and 7.89.
For `O=c1[nH]cc(-c2cc(NCCc3cccc(C(F)(F)F)c3)c3nccn3n2)c(=O)[nH]1` [Example 489, 5-(8-((3-(trifluoromethyl)phenethyl)amino)imidazo[1,2-b]pyridazin-6-yl)pyrimidine-2,4(1H,3H)-dione], the pIC50 against CD73 [1] was below 6.60. Besides, at CD73 [2], the pEC50 is 5.78.
On the same counts, the results for `O=c1[nH]cc(-c2cc(NCCc3cccc(Cl)c3)c3nccn3n2)c(=O)[nH]1` [Example 490, 5-(8-((3-chlorophenethyl)amino)imidazo[1,2-b]pyridazin-6-yl)pyrimidine-2,4(1H,3H)-dione] are 7.02 and 6.33.
As to `O=c1[nH]cc(-c2cc(NCCc3ccccc3Cl)c3nccn3n2)c(=O)[nH]1` [Example 491, 5-(8-((2-chlorophenethyl)amino)imidazo[1,2-b]pyridazin-6-yl)pyrimidine-2,4(1H,3H)-dione], on CD73 [1], the pIC50 is below 6.60. On CD73 [2], this compound showed a pEC50 of 5.77.
For `O=c1[nH]cc(-c2cc(NCCc3cccc(F)c3)c3nccn3n2)c(=O)[nH]1` [Example 492, 5-(8-((3-fluorophenethyl)amino)imidazo[1,2-b]pyridazin-6-yl)pyrimidine-2,4(1H,3H)-dione] the same measures were 7.59 and 7.23.
On the same counts, the results for `O=c1[nH]cc(-c2cc(NCCc3ccccc3F)c3nccn3n2)c(=O)[nH]1` [Example 493, 5-(8-((2-fluorophenethyl)amino)imidazo[1,2-b]pyridazin-6-yl)pyrimidine-2,4(1H,3H)-dione] are 6.71 and 6.08.
For `O=c1[nH]cc(-c2cc(NC[C@@H](F)c3ccccc3)c3nccn3n2)c(=O)[nH]1` [Example 494, (S)-5-(8-((2-fluoro-2-phenylethyl)amino)imidazo[1,2-b]pyridazin-6-yl)pyrimidine-2,4(1H,3H)-dione], the pIC50 against CD73 [1] is 6.99. The compound further had a pEC50 at CD73 [2] of 6.54.
Consider `O=c1[nH]cc(-c2cc(NCCc3c[nH]c4ccc(Cl)cc34)c3nccn3n2)c(=O)[nH]1` [Example 495, 5-(8-((2-(5-chloro-1H-indol-3-yl)ethyl)amino)imidazo[1,2-b]pyridazin-6-yl)pyrimidine-2,4(1H,3H)-dione], for which the pIC50 on CD73 [1] was below 6.60. At CD73 [2], this compound gave a negative-log EC50 (pEC50) of 6.13.
Consider `O=c1[nH]cc(-c2cc(NCCc3ccc(F)cc3)c3nccn3n2)c(=O)[nH]1` [Example 496, 5-(8-((4-fluorophenethyl)amino)imidazo[1,2-b]pyridazin-6-yl)pyrimidine-2,4(1H,3H)-dione], for which the pIC50 on CD73 [1] was 7.19. The compound also had a pEC50 on CD73 [2] of 6.81.
At CD73 [1], `O=c1[nH]cc(-c2cc(NCCc3ccc(Cl)cc3)c3nccn3n2)c(=O)[nH]1` [Example 497, 5-(8-((4-chlorophenethyl)amino)imidazo[1,2-b]pyridazin-6-yl)pyrimidine-2,4(1H,3H)-dione] showed a pIC50 of 7.19. The compound further had a pEC50 on CD73 [2] of 6.25.
